Assay results published in patent US20070203211A1, “Drug for preventing or treating angiogenic eye diseases” (SANKYO COMPANY, LIMITED, priority 2003, published 2007).

What was measured:
C57BL/6 mice = assay: oxygen-induced retinopathy in mice, retinopathy score by ADPase staining of retinal flat specimens; assay type: in vivo; settings: score as percentage of solvent control (100%), n = 9 to 16
Experimental: Seven-day-old C57BL/6 mice were housed for five days with their mother in roughly 75% oxygen. Subsequently, the animals were housed for another five days after returning to ordinary air. While being housed in air, the animals were administered a test compound once a day. Following completion of administration, the animals were sacrificed by dislocation of the cervical vertebra followed by excision of the eyeball. The eyeballs were fixed in neutral formalin. After preparing flat specimens of the retina, vascular endothelium was stained by ADPase staining (Lutty, et al., Arch. Ophthalmol. 1992; 100: 267). After staining, retinopathy was scored in a blind study, and retinopathy was assessed for each of 12 retinal sections obtained by dividing the entire circumference of the retina into 12 equal sections centering about the papilla of the optic nerve. Assessments were made by scoring either the presence of retinopathy (score: 1) or the absence of retinopathy (score: 0), and determining the retinopathy score for each specimen based on the total score of the 12 sections. The score of each test compound was calculated as a percentage based on assigning a value of 100% for the score following administration of solvent. The test compounds consisted of (5-methyl-2-oxo-1,3-dioxolen-4-yl)methyl 4-(1-hydroxy-1-methylethyl)-2-propyl-1-[2′-(1H-tetrazol-5-yl)biphenyl-4-ylmethyl]imidazole-5-carboxylate (hereinafter, indicated as “Compound A”) for the medicament of the present invention, Candesartan cilexetil and Losartan.

[1] = test system: New Zealand White rabbits; assay: VEGF pellet-induced corneal neovascularization in rabbits; assay type: in vivo; settings: dosage 10 mg/kg once a day for one week; AA = neovascularization density score (0 to 5) x length (mm); solvent control 0.72 ± 0.15; n = 3
From the text: Male New Zealand White rabbits were used in this example. The animals were anesthetized by administering suitable amounts of animal […] (registered trade mark) 50 and Celactal (registered trade mark). Moreover, the eyes were topically anesthetized by dropping 0.4% Benoxil (registered trade mark) opthalmic solution. The procedure was basically preformed in accordance with the method of Ziche, et al. (J. Clin. Invest. 1997 99: 2625-2634), and consisted of creating a pocket in the center of the cornea with a razor, and inserting a hydron pellet containing VEGF produced in advance into the pocket. A solution of the test compound was administered once a day for one week. Corneal neovascularization was photographed on the day after final administration of the test compound. Neovascularization was evaluated using the density and length of newly formed vessels as an index. Namely, neovascularization density was scored from 0 to 5 by referring to standard photographs corresponding to each score. The length of neovascularization was calculated by measuring the length (mm) of vessels uniformly extending from the corneal limbus towards the pellet based on a scale bar on the photograph. The value obtained by multiplying the neovascularization density score by the neovascularization length (mm) was used to indicate angiogenic activity (AA).

[2] = dosage 1 mg/kg once a day for five days
[3] = dosage 3 mg/kg once a day for five days
[4] = dosage 10 mg/kg once a day for five days
[5] = dosage 30 mg/kg once a day for five days

SMILES	Retinopathy (%) (C57BL/6 mice; [2])	Retinopathy (%) (C57BL/6 mice; [3])	Retinopathy (%) (C57BL/6 mice; [4])	Retinopathy (%) (C57BL/6 mice; [5])	Angiogenic Activity (AA) [1]	Retinopathy (%) (C57BL/6 mice; dosage 100 mg/kg once a day for five days)
CCOc1nc2cccc(C(=O)OC(C)OC(=O)OC3CCCCC3)c2n1Cc1ccc(-c2ccccc2-c2nnn[nH]2)cc1 (stereo not shown) [Candesartan cilexetil]	84 ± 14	70 ± 12	56 ± 11	58 ± 11		
CCCc1nc(C(C)(C)O)c(C(=O)OCc2oc(=O)oc2C)n1Cc1ccc(-c2ccccc2-c2nnn[nH]2)cc1 [Compound A, (5-methyl-2-oxo-1,3-dioxolen-4-yl)methyl 4-(1-hydroxy-1-methylethyl)-2-propyl-1-[2′-(1H-tetrazol-5-yl)biphenyl-4-ylmethyl]imidazole-5-carboxylate]	57 ± 13	40 ± 9	31 ± 7	32 ± 11	0.14 ± 0.11	
CCCCc1nc(Cl)c(CO)n1Cc1ccc(-c2ccccc2-c2nn[nH]n2)cc1 [Losartan]		90 ± 11	54 ± 10	42 ± 9		40 ± 11
